Experiments:
Format in all cases: cell-based, human
[1] = tested on: HOP-62; assay: NCI screening panel, HOP-62 (Non-Small Cell Lung Cancer)
Description: (§1) Representative compounds of Formula I were screened using the National Cancer Institute (NCI) screening panel, which consists of a panel of human tumor cell lines, representing leukemia, melanoma, and cancers of the lung, colon, ovary, breast, prostate and renal system.
(§2) After 24 h, two plates of each cell line are fixed in situ with TCA, to represent a measurement of the cell population for each cell line at the time of drug addition (Tz). Experimental drugs are solubilised in dimethyl sulfoxide at 400-fold the desired final maximum test concentration and stored frozen prior to use. At the time of drug addition, an aliquot of frozen concentrate is thawed and diluted to twice the desired final maximum test concentration with complete medium containing 50 μg/mL gentamicin. Additional four, 10-fold or ½ log serial dilutions are made to provide a total of five drug concentrations plus control. Aliquots of 100 μl of these different drug dilutions are added to the appropriate microtiter wells already containing 100 μl of medium, resulting in the required final drug concentrations.
(§3) Following drug addition, the plates are incubated for an additional 48 h at 37° C., 5% CO2, 95% air, and 100% relative humidity. For adherent cells, the assay is terminated by the addition of cold TCA (trichloroacetic acid). Cells are fixed in situ by the gentle addition of 50 μl of cold 50% (w/v) TCA (final concentration, 10% TCA) and incubated for 60 minutes at 4° C. The supernatant is discarded, and the plates are washed five times with tap water and air dried. Sulforhodamine B (SRB) solution (100 μl) at 0.4% (w/v) in 1% acetic acid is added to each well, and plates are incubated for 10 minutes at room temperature. After staining, unbound dye is removed by washing five times with 1% acetic acid and the plates are air dried. Bound stain is subsequently solubilised with 10 mM trizma base, and the absorbance is read on an automated plate reader at a wavelength of 515 nm. For suspension cells, the methodology is the same except that the assay is terminated by fixing settled cells at the bottom of the wells by gently adding 50 μl of 80% TCA (final concentration, 16% TCA). Using the seven absorbance measurements [time zero, (Tz), control growth, (C), and test growth in the presence of drug at the five concentration levels (Ti)], the percentage growth is calculated at each of the drug concentrations levels. Percentage growth inhibition is calculated as: [(Ti−Tz)/(C−Tz)]×100 for concentrations for which Ti>/=Tz and [(Ti−Tz)/Tz]×100 for concentrations for which Ti<Tz.
(§4) Three dose response parameters are calculated for each experimental agent. Growth inhibition of 50% (GI50) is calculated from [(Ti−Tz)/(C−Tz)]×100=50, which is the drug concentration resulting in a 50% reduction in the net protein increase (as measured by SRB staining) in control cells during the drug incubation. The drug concentration resulting in total growth inhibition (TGI) is calculated from Ti=Tz. The LC50 (concentration of drug resulting in a 50% reduction in the measured protein at the end of the drug treatment as compared to that at the beginning) indicating a net loss of cells following treatment is calculated from [(Ti−Tz)/Tz]×100=−50. Values are calculated for each of these three parameters if the level of activity is reached. However, if the effect is not reached or is exceeded, the value for that parameter is expressed as greater or less than the maximum or minimum concentration tested.

[2] = tested on: MDA-MB-435; assay: NCI screening panel, MDA-MB-435 (Melanoma)
Description: as §1, §2, §3, §4

[3] = tested on: OVCAR-3; assay: NCI screening panel, OVCAR-3 (Ovarian Cancer)
Description: as §1, §2, §3, §4

[4] = tested on: OVCAR-5; assay: NCI screening panel, OVCAR-5 (Ovarian Cancer)
Description: as §1, §2, §3, §4

[5] = tested on: ACHN; assay: NCI screening panel, ACHN (Renal Cancer)
Description: as §1, §2, §3, §4

Row | Structure (SMILES) | Log10GI50 [1] | Log10LC50 [1] | Log10TGI50 [1] | Log10GI50 [2] | Log10LC50 [2] | Log10TGI50 [2] | Log10GI50 [3] | Log10LC50 [3] | Log10TGI50 [3] | Log10GI50 [4] | Log10LC50 [4] | Log10TGI50 [4] | Log10GI50 [5] | Log10LC50 [5] | Log10TGI50 [5]
1 | CC(C)C[C@H](NC(=O)[C@H](COC(F)F)NC(=O)CN1CCOCC1)C(=O)N[C@@H](COC(F)F)C(=O)N[C@@H](CC(C)C)C(=O)[C@@]1(C)CO1 [Example 1, (2S)—N-[(1S)-1-(difluoromethoxymethyl)-2-[[(1S)-3-methyl-1-[(2R)-2-methyloxirane-2-carbonyl]butyl]amino]-2-oxo-ethyl]-2-[[(2S)-3-(difluoromethoxy)-2-[(2-morpholinoacetyl)amino]propanoyl]amino]-4-methyl-pentanamide] | −7.76 | −6.57 | −7.33 | −7.78 | −7.07 | −7.42 | −7.69 | −6.91 | −7.34 | −7.39 | >−4.00 | −6.31 | −6.34 | >−4.00 | >−4.00
2 | CC(C)C[C@H](NC(=O)[C@H](COC(F)F)NC(=O)CN1CCOCC1)C(=O)N[C@@H](Cc1ccccc1)C(=O)N[C@@H](CC(C)C)C(=O)[C@@]1(C)CO1 [Example 2, (2S)-N-[(1S)-1-benzyl-2-[[(1S)-3-methyl-1-[(2R)-2-methyloxirane-2-carbonyl]butyl]-amino]-2-oxo-ethyl]-2-[[(2S)-3-(difluoromethoxy)-2-[(2-morpholinoacetyl)amino]propanoyl]amino]-4-methyl-pentanamide] | −7.90 | −7.04 | −7.47 | −7.99 | −7.14 | −7.56 | −7.80 | −6.64 | −7.34 | −7.47 | −4.54 | −6.70 | −6.71 | >−4.00 | >−4.00
3 | CC(C)C[C@H](NC(=O)[C@H](COC(F)F)NC(=O)CN1CCOCC1)C(=O)N[C@@H](Cc1ccccc1)C(=O)N[C@@H](Cc1ccccc1)C(=O)[C@@]1(C)CO1 [Example 3, (2S)-N-[(1S)-1-benzyl-2-[[(1S)-1-benzyl-2-[(2R)-2-methyloxiran-2-yl]-2-oxo-ethyl]amino]-2-oxo-ethyl]-2-[[(2S)-3-(difluoromethoxy)-2-[(2-morpholinoacetyl)-amino]propanoyl]amino]-4-methyl-pentan-amide] | <−8.00 | −4.76 | −7.20 | <−8.00 | −7.34 | −7.90 | <−8.00 | −6.36 | −7.25 | −7.42 | >−4.00 | −5.86 | −7.13 | >−4.00 | >−4.00
4 | CC(C)C[C@H](NC(=O)[C@H](COC(F)F)NC(=O)CN1CCOCC1)C(=O)N[C@@H](COC(F)F)C(=O)N[C@@H](Cc1ccccc1)C(=O)[C@@]1(C)CO1 [Example 4, (2S)-N-[(1S)-2-[[(1S)-1-benzyl-2-[(2R)-2-methyloxiran-2-yl]-2-oxo-ethyl]amino]-1-(difluoromethoxymethyl)-2-oxo-ethyl]-2-[[(2S)-3-(difluoromethoxy)-2-[(2-mor-pholinoacetyl)amino]propanoyl]amino]-4 methyl-pentanamide] | −7.65 | >−4.00 | −6.98 | −7.79 | −7.09 | −7.44 | −7.43 | −6.11 | −6.89 | −7.29 | >−4.00 | −6.07 | −6.32 | >−4.00 | >−4.00
5 | CC(C)C[C@H](NC(=O)[C@H](COC(F)F)NC(=O)[C@H](COC(F)F)NC(=O)[C@H](CCc1ccccc1)NC(=O)CN1CCOCC1)C(=O)[C@@]1(C)CO1 [Example 7, (2S)-N-[(1S)-1-(difluoromethoxymethyl)-2-[[(1S)-1-(difluoromethoxymethyl)-2-[[(1S)-3-methyl-1-[(2R)-2-methyloxirane-2-carbo-nyl]butyl]amino]-2-oxo-ethyl]amino]-2-oxo-ethyl]-2-[(2-morpholinoacetyl)amino]-4-phenyl-butanamide] | −7.63 | >−4.00 | −7.00 | −7.83 | −7.12 | −7.47 | −7.64 | −6.40 | −7.24 | −7.31 | >−4.00 | −6.14 | −6.31 | >−4.00 | >−4.00
6 | CC(C)C[C@H](NC(=O)[C@H](Cc1ccccc1)NC(=O)[C@H](COC(F)F)NC(=O)[C@H](COC(F)F)NC(=O)CN1CCOCC1)C(=O)[C@@]1(C)CO1 [Example 11, (2S)-2-[[(2S)-3-(difluoromethoxy)-2-[[(2S)-3-(difluoromethoxy)-2-[(2-morpholinoacetyl)-amino]propanoyl]amino]propanoyl]amino]-N-[(1S)-3-methyl-1-[(2R)-2-methyloxirane-2-carbonyl]butyl]-3-phenyl-propanamide] | −7.56 | >−4.00 | −4.94 | −7.90 | −7.24 | −7.57 | −7.66 | −6.82 | −7.31 | −7.37 | >−4.00 | −6.46 | −6.40 | >−4.00 | >−4.00
7 | CC(C)C[C@H](NC(=O)[C@H](COC(F)F)NC(=O)[C@H](COC(F)F)NC(=O)[C@H](COC(F)F)NC(=O)CN1CCOCC1)C(=O)[C@@]1(C)CO1 [Example 17, (2S)-3-(difluoromethoxy)-N-[(1S)-1-(difluoromethoxymethyl)-2-[[(1S)-1-(difluoro-methoxymethyl)-2-[[(1S)-3-methyl-1-[(2R)-2-methyloxirane-2-carbonyl]butyl]amino]-2-oxo-ethyl]amino]-2-oxo-ethyl]-2-[(2-mor-pholinoacetyl)amino]-propanamide] | −6.82 | >−4.00 | >−4.00 | −7.42 | −6.29 | −6.81 | −7.30 | −6.05 | −6.65 | −6.55 | >−4.00 | −5.71 | −5.55 | >−4.00 | >−4.00
